In patent US20120190752A1, “EXO-S-MECAMYLAMINE METHOD, USE, AND COMPOUND FOR TREATMENT” (Targacept Inc., priority 2009, published 2012):

Test system: subjects with major depressive disorder (MDD) who were inadequate responders to citalopram
Assay: QIDS-SR, Phase 2b add-on trial
Format: in vivo, human
Text: The 30 item Inventory of Depressive Symptomatology (IDS) (Rush et al. 1986, 1996) and the 16 item Quick Inventory of Depressive Symptomatology (QIDS) (Rush et al. 2003) are designed to assess the severity of depressive symptoms. Both the IDS and the […] are available in the clinician (IDS-C30 and QIDS-C16) and self-rated versions (IDS-SR30 and QIDS-SR16). The IDS and QIDS assess all the criterion symptom domains designated by the American Psychiatry Association Diagnostic and Statistical Manual of Mental Disorders—4th edition (DSM-IV) (APA 1994) to diagnose a major depressive episode. These assessments can be used to screen for depression, although they have been used predominantly as measures of symptom severity. The seven day period prior to assessment is the usual time frame for assessing symptom severity. The […] and QIDS-SR16 cover only the nine diagnostic symptom domains used to characterize a major depressive episode, without items to assess atypical, melancholic or their commonly associated symptoms. All 16 items on the QIDS are included within the IDS. The IDS-C30 and […] include the criterion symptoms, as well as commonly associated symptoms (e.g. anxiety, irritability) and items relevant to melancholic, or atypical symptom features. Both versions are sensitive to change, with medications, psychotherapy, or somatic treatments, making them useful for both research and clinical purposes. The psychometric properties of both the IDS and QIDS, have both been established in various study samples. See Rush A J, Trivedi M H, Ibrahim H M, et al., The 16-item Quick Inventory of Depressive Symptomatology (QIDS), Clinician Rating (QIDS-C), and Self-Report (QIDS-SR): a psychometric evaluation in patients with chronic major depression. Biol Psychiatry.; 54: 573-583 (2003).
In more detail, a multi-center double-blind, randomized, placebo-controlled, parallel group, flexible dose titration study of TC-5214 as adjunctive therapy in subjects with major depressive disorder (MDD) who were inadequate responders to citalopram was conducted in centers in the US and India. The study consisted of a screening period, baseline/washout period, open-label phase, double-blind phase, and a follow-up visit. Subject participation in the study could continue for up to 16 weeks of treatment. Following a washout period of up to 28 days for other antidepressants, subjects with MDD and a MADRS total score >/=28 and a Clinical Global Impression-Severity (CGI-S) score >/=4 were enrolled on Day 1 into an open-label citalopram-only phase of the study. This phase lasted 8 weeks, with citalopram (CIT) dose increased from a once-daily dose of 20 mg (Day 1 through Week 4) to 40 mg (Week 4 through Week 8). A total of 579 subjects entered the open-label citalopram phase. At Week 8, subjects who tolerated 40 mg CIT, but whose MADRS score was reduced <50% from baseline and no lower than 17, and CGI-S≧4, were considered inadequate responders. These subjects (n=270) were randomized in a double-blind fashion to receive either placebo or TC-5214-23 as add-on therapy to continued CIT. The double-blind phase of the study also lasted 8 weeks (Week 8 to Week 16). Study drug, TC-5214-23 or placebo, was started at 2 mg daily (1 mg twice per day [BID] dosing), added on to continuing CIT (40 mg PO qd). After 2 weeks of treatment, the dose of TC-5214 could be increased to 4 mg (2 mg BID) or continued unchanged, with up-titration based upon good tolerability and inadequate therapeutic response. After a further 2 weeks, the dose of TC-5214 could be increased again to 8 mg (4 mg BID) if judged appropriate by the investigator, based upon good tolerability and inadequate therapeutic response. At any time during the double-blind phase of the study, placebo or TC-5214-23 could be reduced to the previous dose level following the emergence of unacceptable adverse events (AEs). […] At this follow-up, any signs or symptoms of relapse were evaluated. […]

[1] = ITT N=265, week of double-blind treatment
[2] = ITT and PP, at every assessment week, result in words
[3] = ITT, Double Blind Week 18 (Follow-up)
[4] = ITT, Double Blind Week 18 LOCF (Follow-up), change from Week 16
[5] = PP, Double Blind Week 16 LOCF (change from Week 8)
[6] = PP, Double Blind Week 18 (Follow-up)
[7] = PP, Double Blind Week 18 LOCF (Follow-up), change from Week 16

## CNC1(C)C2CCC(C2)C1(C)C (stereo in doubt) [TC-5214, (S)—N,2,3,3-tetramethylnorbornan-2-amine]
[1]
  onset of separation from placebo, subject rated remission QIDS-SR≦5 (FIG. 2): ≤ 2 week
  onset of separation from placebo, subject rated response QIDS-SR≧50% (FIG. 3): ≤ 1 week
ITT and PP populations, result in words
  QIDS-SR score change from baseline compared with placebo: statistically significant decreases (improvements)
[2]
  QIDS remission proportion compared with placebo: higher proportion of subjects with remission
  QIDS responders (reduction from baseline ≧50%) proportion compared with placebo: higher proportion of responders
ITT, Double Blind Week 10
  QIDS reduction from baseline ≧50%: Subjects with Response (number): 29
  QIDS reduction from baseline ≧50%: Subjects with Response (percentage): 22%
  QIDS reduction from baseline ≧50%: Subjects without Response (number): 104
  QIDS reduction from baseline ≧50%: Subjects without Response (percentage): 78%
  QIDS score ≦5: Subjects with Remission (number): 19
  QIDS score ≦5: Subjects with Remission (percentage): (14%)
  QIDS score ≦5: Subjects without Remission (number): 114
  QIDS score ≦5: Subjects without Remission (percentage): (86%)
ITT, Double Blind Week 12
  QIDS reduction from baseline ≧50%: Subjects with Response (number): 44
  QIDS reduction from baseline ≧50%: Subjects with Response (percentage): 33%
  QIDS reduction from baseline ≧50%: Subjects without Response (number): 89
  QIDS reduction from baseline ≧50%: Subjects without Response (percentage): 67%
  QIDS score ≦5: Subjects with Remission (number): 25
  QIDS score ≦5: Subjects with Remission (percentage): (19%)
  QIDS score ≦5: Subjects without Remission (number): 108
  QIDS score ≦5: Subjects without Remission (percentage): (81%)
ITT, Double Blind Week 14
  QIDS reduction from baseline ≧50%: Subjects with Response (number): 67
  QIDS reduction from baseline ≧50%: Subjects with Response (percentage): 50%
  QIDS reduction from baseline ≧50%: Subjects without Response (number): 66
  QIDS reduction from baseline ≧50%: Subjects without Response (percentage): 50%
  QIDS score ≦5: Subjects with Remission (number): 45
  QIDS score ≦5: Subjects with Remission (percentage): (34%)
  QIDS score ≦5: Subjects without Remission (number): 88
  QIDS score ≦5: Subjects without Remission (percentage): (66%)
ITT, Double Blind Week 16
  QIDS reduction from baseline ≧50%: Subjects with Response (number): 88
  QIDS reduction from baseline ≧50%: Subjects with Response (percentage): 66%
  QIDS reduction from baseline ≧50%: Subjects without Response (number): 45
  QIDS reduction from baseline ≧50%: Subjects without Response (percentage): 34%
  QIDS score ≦5: Subjects with Remission (number): 60
  QIDS score ≦5: Subjects with Remission (percentage): (45%)
  QIDS score ≦5: Subjects without Remission (number): 73
  QIDS score ≦5: Subjects without Remission (percentage): (55%)
ITT, Double Blind Week 16 LOCF (change from Week 8)
  QIDS-SR Mean Difference between TC-5214 and Placebo: 3.79
[3]
  QIDS reduction from baseline ≧50%: Subjects with Response (number): 92
  QIDS reduction from baseline ≧50%: Subjects with Response (percentage): 69%
  QIDS reduction from baseline ≧50%: Subjects without Response (number): 41
  QIDS reduction from baseline ≧50%: Subjects without Response (percentage): 31%
  QIDS score ≦5: Subjects with Remission (number): 75
  QIDS score ≦5: Subjects with Remission (percentage): (56%)
  QIDS score ≦5: Subjects without Remission (number): 58
  QIDS score ≦5: Subjects without Remission (percentage): (44%)
[4]
  QIDS-SR Adjusted Mean change: −0.52
  QIDS-SR Mean Difference between TC-5214 and Placebo: 0.58
ITT, Week 8 to Week 16 LOCF
  QIDS-SR Difference vs Placebo + CIT: −3.76
ITT, change from Week 8 (double-blind baseline) to Week 16 LOCF, add-on to citalopram
  QIDS-SR Adj. Mean change: −8.07
PP population, Week 18, result in words
  QIDS-SR score change at Week 18 compared with placebo: statistically significant decrease
PP, Double Blind Week 10
  QIDS reduction from baseline ≧50%: Subjects with Response (number): 25
  QIDS reduction from baseline ≧50%: Subjects with Response (percentage): 22%
  QIDS reduction from baseline ≧50%: Subjects without Response (number): 88
  QIDS reduction from baseline ≧50%: Subjects without Response (percentage): 78%
  QIDS score ≦5: Subjects with Remission (number): 17
  QIDS score ≦5: Subjects with Remission (percentage): 15%
  QIDS score ≦5: Subjects without Remission (number): 96
  QIDS score ≦5: Subjects without Remission (percentage): 85%
PP, Double Blind Week 12
  QIDS reduction from baseline ≧50%: Subjects with Response (number): 40
  QIDS reduction from baseline ≧50%: Subjects with Response (percentage): 35%
  QIDS reduction from baseline ≧50%: Subjects without Response (number): 73
  QIDS reduction from baseline ≧50%: Subjects without Response (percentage): 65%
  QIDS score ≦5: Subjects with Remission (number): 23
  QIDS score ≦5: Subjects with Remission (percentage): 20%
  QIDS score ≦5: Subjects without Remission (number): 90
  QIDS score ≦5: Subjects without Remission (percentage): 80%
PP, Double Blind Week 14
  QIDS reduction from baseline ≧50%: Subjects with Response (number): 59
  QIDS reduction from baseline ≧50%: Subjects with Response (percentage): 52%
  QIDS reduction from baseline ≧50%: Subjects without Response (number): 54
  QIDS reduction from baseline ≧50%: Subjects without Response (percentage): 48%
  QIDS score ≦5: Subjects with Remission (number): 39
  QIDS score ≦5: Subjects with Remission (percentage): 35%
  QIDS score ≦5: Subjects without Remission (number): 74
  QIDS score ≦5: Subjects without Remission (percentage): 65%
PP, Double Blind Week 16
  QIDS reduction from baseline ≧50%: Subjects with Response (number): 80
  QIDS reduction from baseline ≧50%: Subjects with Response (percentage): 71%
  QIDS reduction from baseline ≧50%: Subjects without Response (number): 33
  QIDS reduction from baseline ≧50%: Subjects without Response (percentage): 29%
  QIDS score ≦5: Subjects with Remission (number): 55
  QIDS score ≦5: Subjects with Remission (percentage): 49%
  QIDS score ≦5: Subjects without Remission (number): 58
  QIDS score ≦5: Subjects without Remission (percentage): 51%
[5]
  QIDS-SR Adjusted Mean change: −8.60
  QIDS-SR Mean Difference between TC-5214 and Placebo: 3.90
[6]
  QIDS reduction from baseline ≧50%: Subjects with Response (number): 84
  QIDS reduction from baseline ≧50%: Subjects with Response (percentage): 74%
  QIDS reduction from baseline ≧50%: Subjects without Response (number): 29
  QIDS reduction from baseline ≧50%: Subjects without Response (percentage): 26%
  QIDS score ≦5: Subjects with Remission (number): 69
  QIDS score ≦5: Subjects with Remission (percentage): 61%
  QIDS score ≦5: Subjects without Remission (number): 44
  QIDS score ≦5: Subjects without Remission (percentage): 39%
[7]
  QIDS-SR Adjusted Mean change: −0.65
  QIDS-SR Mean Difference between TC-5214 and Placebo: 0.84
